Earlier results, collected in US20250334554A1, “ANALYTICAL METHOD FOR QUANTIFYING SUCRALOSE-6-ACETATE CONTENT” (Avazyme, Inc., priority 2024, published 2025).
Peptide text beside a SMILES is read from it.

Assays:
humans = conditions: 2023, Riboli et al.
[1] = Schiffman et al. 2023

Compound | IARC carcinogenicity classification (humans) | consumption level at which may be genotoxic [1]
COC(=O)[C@H](Cc1ccccc1)NC(=O)[C@@H](N)CC(=O)O [aspartame] (H-Asp-Phe-OMe) | possibly carcinogenic to humans (Group 2B) | 
CC(=O)OC[C@H]1O[C@H](O[C@]2(CCl)O[C@H](CCl)[C@@H](O)[C@@H]2O)[C@H](O)[C@@H](O)[C@H]1Cl [sucralose-6-acetate] |  | 0.15 µg/day
